From US12280072B2, “Oligosaccharide compound for inhibiting intrinsic coagulation factor X-enzyme complex, and preparation method therefor and uses thereof” (Jiuzhitang Co., Ltd., priority 2017, dated 2025)
pIC50: −log10 of the molar value.

Experiments:
Assay type in all cases: biochemical
human-controlled plasma [1] = experiment: Anticoagulant activity assay: PT clotting time
Description: (§1) 8.2 Methods • (1) Preparation of sample solution: Oligosaccharide compounds A1˜A8, B1˜B11 and oligosaccharide mixtures C1, D1, D2 were all dissolved in Tris-HCl buffer and diluted to the desired series of solubility. • (2) Anticoagulant activity assay: 90 μL of human-controlled plasma was added to the sample or 10 μL of the control solution, and then the clotting time (APTT and PT) was detected by the MC-4000 coagulometer according to the method described in the APTT and PT kit instructions. • (3) Coagulation factor inhibitory activity analysis: […]

FXa (Homo sapiens) = biological target: T1, FXa (Homo sapiens); experiment: AT-dependent Xa inhibitory activity assay; conditions: in presence of AT; read-out: Drug concentration required to inhibit 50% of coagulation factor activity (IC50, ng/mL) Xa (AT)
T1 construct: 8 μg/mL FXa solution; purchased
Description: AT-dependent Xa inhibitory activity assay: Heparin […] kit was used for detection. To a 96-well plate, 30 μL of sample, control solution or Tris-HCl buffer (negative control) was added, then 30 μL of 1 IU/mL AT solution was added, mixed well and incubated at 37° C. for 1 min; and than 30 μL of 8 μg/mL FXa solution was added, mixed well and incubated at 37° C. for 1 min, then 30 μL of pre-warmed 1.25 mM Xa chromogenic substrate SXa-11 was added. OD405 was detected by a microplate reader.
(§2) Data processing: The average value of OD405 detected by the duplicated well was used as the detection value of the test sample and the reference of each concentration, and the slope of the linear fit between the detected value to the time value (the change rate of the absorbance value OD405/min) indicated enzymatic activity of coagulation factor. Taking the clotting factor activity of the negative control well as 100%, coagulation factor activity (percentage) in the presence of the test sample was calculated. The coagulation factor activity in the presence of the test sample was plotted against the concentration of the test sample, and fitted according to the following formula, to calculate the IC50 value: B=(IC50)^n/{(IC50)^n+[I]^n}
(§3) in the formula, B is the coagulation factor activity (percentage) in the presence of the test sample, [I] is the concentration of the test sample, IC50 is the half inhibitory concentration (concentration of the test sample required to inhibit 50% of the activity), and n is the Hill coefficient. • (4) Effect on surface activation and platelet activity: […]

human-controlled plasma [2] = experiment: Anticoagulant activity assay: APTT clotting time
Description: as §1

intrinsic factor Xase = biological target: T2, intrinsic factor Xase (Homo sapiens, UniProt P00740); experiment: Xase inhibitory activity assay; conditions: read-out: Drug concentration required to inhibit 50% of coagulation factor activity (IC50, ng/mL) Xase (converted)
T2 construct: 60 nM FIXa; purchased
Description: Xase inhibitory activity assay: Detection was performed according to kit instructions and literature methods by combining the Factor VIII and […]. Specifically, to each well of a 96-well plate, 30 μL of test solution, control solution, or Tris-HCl buffer (negative control) was added, and 30 μl of FVIII (2 IU/ml), 30 μl of R2 (60 nM FIXa, containing FIIa, PC/PS, Ca^2+) were sequentially added, mixed by shaking the plate, incubated at 37° C. for 2 min; and then 30 μL of R1 (50 nM FX, containing direct thrombin inhibitor) was added, mixed by shaking the plate, incubated at 37° C. for 1 min; and then 30 μL of R3 (FXa chromogenic substrate SXa-11, about 8.4 mM) was added. The absorbance at 405 nm (OD405) was detected with a microplate reader, continuously measuring for 7.5 min at a interval of 30 s. The Xase activity and IC50 value of Xase inhibition of the test sample were calculated based on the OD405 change value.
as §2, §3

plasma = experiment: TT (thrombin time) clotting time
FIIa (Homo sapiens) = biological target: T3, FIIa (Homo sapiens); experiment: AT-dependent IIa inhibitory activity assay; conditions: in presence of AT; read-out: Drug concentration required to inhibit 50% of coagulation factor activity (IC50, ng/mL) Ha (AT)
T3 construct: antithrombin (i.e., active coagulation factor IIa); purchased
Description: AT-dependent IIa inhibitory activity assay: Heparin Anti-FIIa kit was used for detection. To a 96-well plate, 30 μL of sample, control solution or Tris-HCl buffer (negative control) was added, and then 30 μL of 1 IU/mL AT solution was added, mixed well by shaking the plate and incubated at 37° C. for 2 min; 30 μL of 24 IU/mL FIIa solution was added, mixed well by shaking the plate and incubated for 2 min at 37° C., and then 30 μL of pre-warmed 1.25 mM FIIa specific chromogenic substrate CS-01 (38) was added, mixed well by shaking the plate. The OD405 was detected by a microplate reader and the IC50 value of FIIa inhibition of each sample was calculated.
as §2, §3

T3 sequence (P01008 33-464): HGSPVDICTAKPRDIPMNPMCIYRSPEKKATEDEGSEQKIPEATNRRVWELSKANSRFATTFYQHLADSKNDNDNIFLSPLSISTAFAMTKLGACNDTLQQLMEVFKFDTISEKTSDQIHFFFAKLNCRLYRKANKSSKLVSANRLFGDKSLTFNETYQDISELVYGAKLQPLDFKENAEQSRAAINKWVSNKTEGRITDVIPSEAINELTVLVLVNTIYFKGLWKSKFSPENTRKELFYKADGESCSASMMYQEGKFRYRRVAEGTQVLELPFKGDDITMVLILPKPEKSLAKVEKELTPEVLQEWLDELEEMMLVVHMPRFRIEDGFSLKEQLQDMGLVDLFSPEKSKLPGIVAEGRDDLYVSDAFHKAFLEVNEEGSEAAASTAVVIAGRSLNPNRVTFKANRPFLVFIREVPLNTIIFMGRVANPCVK
T1 sequence (P01008 33-464): as above
T2 sequence (P00740 47-191 limits assumed): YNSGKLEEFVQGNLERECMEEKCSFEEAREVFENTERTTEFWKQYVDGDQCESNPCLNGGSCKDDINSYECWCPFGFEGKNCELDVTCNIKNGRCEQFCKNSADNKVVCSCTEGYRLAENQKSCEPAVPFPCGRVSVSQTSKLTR
T2 sequence (P00740 227-461 limits assumed): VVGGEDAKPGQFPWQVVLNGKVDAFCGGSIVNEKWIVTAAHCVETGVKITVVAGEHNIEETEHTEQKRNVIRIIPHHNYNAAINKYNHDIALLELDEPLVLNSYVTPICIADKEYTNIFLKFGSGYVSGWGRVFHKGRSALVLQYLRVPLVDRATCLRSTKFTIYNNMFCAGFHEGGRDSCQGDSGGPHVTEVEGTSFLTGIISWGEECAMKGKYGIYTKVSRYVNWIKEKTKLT

pIC50 (FXa (Homo sapiens))	IC50 (intrinsic factor Xase)	pIC50 (FIIa (Homo sapiens))	SMILES	Drug concentration required for multiplication of coagulation time (μg/mL) PT (human-controlled plasma [1])	Drug concentration required for multiplication of coagulation time (μg/mL) APTT (human-controlled plasma [2])	Drug concentration required for multiplication of coagulation time (μg/mL) TT (plasma)
< 5.78	10.3 nM	< 5.78	CC(=O)NC1C(OC2C(C(=O)O)OC(OC3C(NC(C)=O)C(OC4C(C(=O)O)OC(OC5C(NC(C)=O)C(OC(C(O)C(=O)O)C(OC6OC(C)C(OS(=O)(=O)O)C(OS(=O)(=O)O)C6O)C(O)CO)OC(COS(=O)(=O)O)C5OS(=O)(=O)O)C(O)C4OC4OC(C)C(OS(=O)(=O)O)C(OS(=O)(=O)O)C4O)OC(COS(=O)(=O)O)C3OS(=O)(=O)O)C(O)C2OC2OC(C)C(OS(=O)(=O)O)C(OS(=O)(=O)O)C2O)OC(COS(=O)(=O)O)C(OS(=O)(=O)O)C1OC1OC(C(=O)O)=CC(OC2OC(C)C(OS(=O)(=O)O)C(OS(=O)(=O)O)C2O)C1O [Compound B3, L-Fuc3S4S-(α1,3)-L-ΔUA-(α1,3)-{D-GalNAc4S6S-(β1,4)-[L-Fuc3S4S-(α1,3)]-D-GlcA-(β1,3)}˜-D-GalNAc4S6S-(β1,4)-[L-Fuc3S4S-(α1,3)]-D-GlcA-ol]	# (>128 μg/mL)	6.1 µg/mL	# (>128 μg/mL)
< 5.78	9.8 nM	< 5.78	CC(=O)NC1C(OC2C(C(=O)O)OC(OC3C(NC(C)=O)C(OC4C(C(=O)O)OC(OC5C(NC(C)=O)C(OC6C(C(=O)O)OC(O)C(O)C6OC6OC(C)C(OS(=O)(=O)O)C(OS(=O)(=O)O)C6O)OC(COS(=O)(=O)O)C5OS(=O)(=O)O)C(O)C4OC4OC(C)C(OS(=O)(=O)O)C(OS(=O)(=O)O)C4O)OC(COS(=O)(=O)O)C3OS(=O)(=O)O)C(O)C2OC2OC(C)C(OS(=O)(=O)O)C(OS(=O)(=O)O)C2O)OC(COS(=O)(=O)O)C(OS(=O)(=O)O)C1OC1OC(C(=O)O)=CC(OC2OC(C)C(OS(=O)(=O)O)C(OS(=O)(=O)O)C2O)C1O [Compound B8, L-Fuc3S4S-(α1,3)-L-ΔUA-(α1,3)-{D-GaNAc4S6S-(β1,4)-[L-Fuc3S4S-(α1,3)]-D-GlcA-(β1,4)}˜-D-GalNAc4S6S-(β1,4)-[L-Fuc3S4S-(α1,3)]-D-GlcA]	# (>128 μg/mL)	5.8 µg/mL	# (>128 μg/mL)
< 5.72	22.2 nM	< 5.72	CC1OC(OC2C=C(C(=O)O)OC(OC3C(NS(=O)(=O)O)C(OC4C(C(=O)O)OC(OC5C(NS(=O)(=O)O)C(OC6C(C(=O)O)OC(OC(C(CO)NS(=O)(=O)O)C(OS(=O)(=O)O)C(O)COS(=O)(=O)O)C(O)C6OC6OC(C)C(OS(=O)(=O)O)C(O)C6OS(=O)(=O)O)OC(COS(=O)(=O)O)C5OS(=O)(=O)O)C(O)C4OC4OC(C)C(OS(=O)(=O)O)C(O)C4OS(=O)(=O)O)OC(COS(=O)(=O)O)C3OS(=O)(=O)O)C2O)C(OS(=O)(=O)O)C(O)C1OS(=O)(=O)O [Compound A7, L-Fuc2S4S-(α1,3)-L-ΔUA-(α1,3)-{D-GalNS4S6S-(β1,4)-[L-Fuc2S4S-(α1,3)-]-D-GlcA-(β1,3)}2-D-Gal-NS4S6S-ol]	# (>128 μg/mL)	6.9 µg/mL	# (>128 μg/mL)
